Measurements: patent US20250176550A1, “HERBICIDE COMPOSITION OF URACIL COMPOUND CONTAINING CARBOXYLATE FRAGMENT AND THE USE THEREOF” (Jiangsu Flag Chemical Industry Co., Ltd., priority 2022, published 2025)

What was measured:
digitaria sanguinalis = test: Indoor virulence and combined effect, greenhouse pot test, post-emergence stem and leaf spray, fresh weight inhibition; type: in vivo
Protocol: (§1) The active ingredients A and B are respectively screened and an indoor combined effect of the composition on weeds was evaluated by an indoor test and a field test, to determine a combined effect of the composition on weeds.
(§2) Quantitative seeds of Poaceae weeds (echinochloa crusgalli, Digitaria sanguinalis, setaria viridis, Eleusine indica, avena fatua, alopecurus japonicus, alopecurus aequalis, Lolium multiflorum) and broadleaf weeds (eclipta prostrata, rorippa dubia, Abutilon theophrasti, conyza canadensis, veronica persica, myosoton aquaticum, polygonum lapathifolium, galium aparine var. tenerum, alisma plantago-aquatica, geranium carolinianum) were sown in paper cup containing nutrient soil with a diameter of 7 cm, covered with soil for 1 cm after sowing. After pressing and watering, they were cultured in a greenhouse according to a conventional method. Poaceae weeds grew to 3˜4 leaf stage, broad-leaved weeds grew to 4˜6 leaf stage, spraying treatment to both stem and leaf was performed; and pre-seedling soil spray treatment was performed 24 hours after sowing. Following an experimental design dosage, a WP-2000 walking spray tower (spindle speed 96 mm/r, spray height 200 mm, effective spray amplitude of nozzle 350 mm, nozzle flow rate 390 mL/min, nozzle walking speed 210 mm/s) was used for the spray treatment. The experiment was repeated three times. After being treated, a sample material is placed in an operation hall, and after the drug solution is naturally dried out, the sample material is placed in a greenhouse and managed according to the conventional method. A reaction of weeds to the drug agent is observed and recorded, and a regularly visual check of a control effect of the drug agent on weeds was performed after the treatment.
(§3) All of original drugs were using acetone as a solvent, being diluted with 0.1 wt % emulsifier of Tween-80 aqueous solution, and being diluted right before using.
(§4) When determining a ratio or content of the active ingredient A and the active ingredient B, it should be measured from characteristics of action of both agents and virulence thereof, as well as the main purpose of use of a formula shall also be considered in. In the present study, on a basis of previous pre-test, the dosages of the active ingredient A and the active ingredient B were set, when being used alone and mixed, as shown in the following table. Water containing no agent, but containing the same solvent and emulsifier was used as a blank control.
(§5) Repeat 4 times for each treatment, 3 pots per treatment each time and 30 weed seeds were sown for each pot.
(§6) Adopting an absolute number survey method, using a blade to cut the whole seedling of surviving weed along soil surface, and weighting the fresh weight of the weed with an analytical balance. For weeds that had died, counting the fresh weight as zero.
(§7) Survey period and frequency: 21 days after the treatment, total 1 investigation.
(§8) The theoretical fresh weight inhibition rate (E0-Expected Efficacy=[…]) of each treatment combination was calculated by Gowing method, and then compared with the measured inhibition rate (E-Observed Efficacy) to evaluate the combined effect type of both on weeds. When E-E0 value was greater than 10%, it was counted as a synergistic effect, less than −10%, it was counted as an antagonistic effect, and between −10%˜10%, it was counted as an additive effect. According to a plurality of factors including an actual control efficacy, a herbicide characteristic, a formula balance and other factors to determine the best ratio. In the formula, X is the fresh weight inhibition rate of the ingredient A at a dosage of P; Y is the fresh weight inhibition rate of the active ingredient B at a dosage of Q.
(§9) The statistical results are shown in Table 1 to Table 44 below, except for those marked clearly as “pre-emergence treatment”, all others are “post-emergence treatment”. […]

eleusine indica = test: as above; type: in vivo
Protocol: as §1, §2, §3, §4, §5, §6, §7, §8, §9

## CS(=O)(=O)c1cc(C(F)(F)F)ccc1C(=O)c1cnoc1C1CC1 [isoxaflutole]
Digitaria sanguinalis; Table 16, B 40 g a.i./ha
  Fresh weight inhibition rate %, B single agent: 56.12%
Digitaria sanguinalis; Table 16, B 50 g a.i./ha
  Fresh weight inhibition rate %, B single agent: 71.94%
Digitaria sanguinalis; Table 16, B 60 g a.i./ha
  Fresh weight inhibition rate %, B single agent: 73.13%
Digitaria sanguinalis; Table 16, B 70 g a.i./ha
  Fresh weight inhibition rate %, B single agent: 76.72%

## CS(=O)(=O)c1ccc(C(=O)C2C(=O)CCCC2=O)c([N+](=O)[O-])c1 [mesotrione]
Digitaria sanguinalis; Table 13, B 90 g a.i./ha
  Fresh weight inhibition rate %, B single agent: 45.39%
Digitaria sanguinalis; Table 13, B 105 g a.i./ha
  Fresh weight inhibition rate %, B single agent: 56.62%
Digitaria sanguinalis; Table 13, B 120 g a.i./ha
  Fresh weight inhibition rate %, B single agent: 58.12%

## C[C@@H](Oc1ccc(Oc2nc3ccc(Cl)cc3o2)cc1)C(=O)N(C)c1ccccc1F [metamifop]
Digitaria sanguinalis; Table 29, B 15 g a.i./ha
  Fresh weight inhibition rate %, B single agent: 49.80%
Digitaria sanguinalis; Table 29, B 25 g a.i./ha
  Fresh weight inhibition rate %, B single agent: 55.48%
Digitaria sanguinalis; Table 29, B 40 g a.i./ha
  Fresh weight inhibition rate %, B single agent: 58.52%
Digitaria sanguinalis; Table 29, B 60 g a.i./ha
  Fresh weight inhibition rate %, B single agent: 60.50%

## COc1cc(OC)nc(NC(=O)NS(=O)(=O)c2ncccc2C(=O)N(C)C)n1 [nicosulfuron]
Digitaria sanguinalis; Digitaria sanguinalis, 504 h, Table 1, 12.5 g a.i./ha, post-emergence, 21 days after treatment, read-out: Fresh weight inhibition rate %, B single agent
  inhibition at 12.5 g/ha: 10.2%
Digitaria sanguinalis; Digitaria sanguinalis, 504 h, Table 1, 20 g a.i./ha, post-emergence, 21 days after treatment, read-out: Fresh weight inhibition rate %, B single agent
  inhibition at 20 g/ha: 23.4%
Digitaria sanguinalis; Digitaria sanguinalis, 504 h, Table 1, 25 g a.i./ha, post-emergence, 21 days after treatment, read-out: Fresh weight inhibition rate %, B single agent
  inhibition at 25 g/ha: 34.9%
Digitaria sanguinalis; Digitaria sanguinalis, 504 h, Table 1, 30 g a.i./ha, post-emergence, 21 days after treatment, read-out: Fresh weight inhibition rate %, B single agent
  inhibition at 30 g/ha: 39.1%

## CC(C)N(C)S(=O)(=O)NC(=O)c1cc(-n2c(=O)cc(C(F)(F)F)n(C)c2=O)c(F)cc1Cl [saflufenacil]
Eleusine indica; Table 30, B 7.5 g a.i./ha
  Fresh weight inhibition rate %, B single agent: 23.20%
Eleusine indica; Table 30, B 12.5 g a.i./ha
  Fresh weight inhibition rate %, B single agent: 39.66%
Eleusine indica; Table 30, B 20 g a.i./ha
  Fresh weight inhibition rate %, B single agent: 50.62%
Eleusine indica; Table 30, B 30 g a.i./ha
  Fresh weight inhibition rate %, B single agent: 58.13%
Eleusine indica; Table 30, B 40 g a.i./ha
  Fresh weight inhibition rate %, B single agent: 50.09%

## Cc1nn(-c2cc(NS(C)(=O)=O)c(Cl)cc2Cl)c(=O)n1C(F)F [sulfentrazone]
Eleusine indica; Table 32, B 75 g a.i./ha
  Fresh weight inhibition rate %, B single agent: 8.30%
Eleusine indica; Table 32, B 120 g a.i./ha
  Fresh weight inhibition rate %, B single agent: 18.12%
Eleusine indica; Table 32, B 150 g a.i./ha
  Fresh weight inhibition rate %, B single agent: 23.53%

## Cc1c(C(=O)c2cnn(C)c2O)ccc(S(C)(=O)=O)c1C1=NOCC1 [topramezone]
Digitaria sanguinalis; Table 15, B 7.5 g a.i./ha
  Fresh weight inhibition rate %, B single agent: 3.85%
Digitaria sanguinalis; Table 15, B 10 g a.i./ha
  Fresh weight inhibition rate %, B single agent: 17.09%
Digitaria sanguinalis; Table 15, B 12.5 g a.i./ha
  Fresh weight inhibition rate %, B single agent: 19.6%

## oxadiargyl
Digitaria sanguinalis; Table 31, B 12.5 g a.i./ha
  Fresh weight inhibition rate %, B single agent: 38.31%
Digitaria sanguinalis; Table 31, B 20 g a.i./ha
  Fresh weight inhibition rate %, B single agent: 42.31%
Digitaria sanguinalis; Table 31, B 30 g a.i./ha
  Fresh weight inhibition rate %, B single agent: 52.31%
